Results reported in patent US9062078B2, “Substituted 7-azabicyles and their use as orexin receptor modulators” (priority 2013, dated 2015).
Read-outs that look alike come from different tables or passages of the source.

Key:
human orexin 2 receptor = human orexin 2 receptor (Homo sapiens (Human), UniProt O43614); assay: Human orexin 2 receptor radioligand binding (competitive, [3H]-EMPA, HEK293 cell preparations)
human orexin 1 receptor = human orexin 1 receptor (Homo sapiens (Human), UniProt O43613); assay: Human orexin 1 receptor radioligand binding (competitive, [3H]-SB674042, CHO cell preparations)
[1] = human orexin 2 receptor, [3H]-EMPA competition binding, read-out: hOX2 Ki (nm)
[2] = human orexin 1 receptor, [3H]-SB674042 competition binding, read-out: hOX1 Ki (nm)

human orexin 1 receptor, sequence (O43613 whole entry): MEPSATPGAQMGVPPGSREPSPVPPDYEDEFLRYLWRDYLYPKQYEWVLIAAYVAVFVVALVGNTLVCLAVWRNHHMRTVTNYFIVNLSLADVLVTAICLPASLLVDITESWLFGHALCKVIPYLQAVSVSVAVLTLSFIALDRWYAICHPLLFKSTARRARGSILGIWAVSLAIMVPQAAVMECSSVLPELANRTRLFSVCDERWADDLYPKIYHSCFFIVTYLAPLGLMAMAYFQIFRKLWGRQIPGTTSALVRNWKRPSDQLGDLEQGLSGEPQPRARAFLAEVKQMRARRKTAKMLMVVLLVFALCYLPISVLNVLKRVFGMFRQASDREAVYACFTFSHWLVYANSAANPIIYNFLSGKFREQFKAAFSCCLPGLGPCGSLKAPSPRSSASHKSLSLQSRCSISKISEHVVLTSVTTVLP
human orexin 2 receptor, sequence (O43614 whole entry): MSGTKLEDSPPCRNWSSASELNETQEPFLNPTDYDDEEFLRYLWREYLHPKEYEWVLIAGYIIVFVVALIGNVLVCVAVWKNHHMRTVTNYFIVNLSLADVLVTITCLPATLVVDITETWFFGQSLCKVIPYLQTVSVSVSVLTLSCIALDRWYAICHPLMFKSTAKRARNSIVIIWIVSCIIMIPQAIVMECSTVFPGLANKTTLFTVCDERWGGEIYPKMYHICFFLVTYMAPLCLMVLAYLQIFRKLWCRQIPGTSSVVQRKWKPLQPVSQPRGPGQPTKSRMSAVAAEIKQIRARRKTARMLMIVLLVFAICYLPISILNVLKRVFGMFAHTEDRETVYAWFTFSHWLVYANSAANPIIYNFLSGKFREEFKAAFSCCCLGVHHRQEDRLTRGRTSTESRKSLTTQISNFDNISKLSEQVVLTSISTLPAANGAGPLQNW

Compound	Ki (human orexin 2 receptor; [1]) [nM]	Ki (human orexin 1 receptor; [2]) [nM]	Ki (human orexin 1 receptor; hOX1 Ki (nm)) [nM]	Ki (human orexin 2 receptor; hOX2 Ki (nm)) [nM]
O=C(c1ccccc1-n1nccn1)N1C2CCC1C(COc1ccc(F)cn1)C2 (racemic) [Example 22, (±)-(2-(2H-1,2,3-triazol-2-yl)phenyl)(2-(((5-fluoropyridin-2-yl)oxy)methyl)-7-azabicyclo[2.2.1]heptan-7-yl)methanone]	50	47		
Cc1cccc(OCC2CC3CCC2N3C(=O)c2ccc(C)nc2-n2nccn2)n1 (racemic) [Example 139, (±)-(6-methyl-2-(2H-1,2,3-triazol-2-yl)pyridin-3-yl)(2-(((6-methylpyridin-2-yl)oxy)methyl)-7-azabicyclo[2.2.1]heptan-7-yl)methanone]	6500	4400		
Cc1ccc(-n2nccn2)c(C(=O)N2C3CCC2C(COc2ccc(C(F)(F)F)cn2)C3)c1 (racemic) [Example 14, (±)-(5-methyl-2-(2H-1,2,3-triazol-2-yl)phenyl)(2-(((5-(trifluoromethyl)pyridin-2-yl)oxy)methyl)-7-azabicyclo[2.2.1]heptan-7-yl)methanone]	71		50	
Cc1ccc2ccccc2c1C(=O)N1C2CCC1C(COc1ccc(F)cn1)C2 (racemic) [Example 25, (±)-2-(((5-fluoropyridin-2-yl)oxy)methyl)-7-azabicyclo[2.2.1]heptan-7-yl)(2-methylnaphthalen-1-yl)methanone]			74	160
Cc1cc(C)nc(NC2CC3CCC2N3C(=O)c2ccc(F)cc2-n2nccn2)n1 (racemic) [Example 199, (±)-(2-((4,6-dimethylpyrimidin-2-yl)amino)-7-azabicyclo[2.2.1]heptan-7-yl)(4-fluoro-2-(2H-1,2,3-triazol-2-yl)phenyl)methanone]	553	1630		
Cc1ccc(-n2nccn2)c(C(=O)N2C3CCC2C(COc2cccc(C)n2)C3)c1 (racemic) [Example 18, (±)-(5-methyl-2-(2H-1,2,3-triazol-2-yl)phenyl)(2-(((6-methylpyridin-2-yl)oxy)methyl)-7-azabicyclo[2.2.1]heptan-7-yl)methanone]	44	12		
Cc1cccc(OCC2CC3CCC2N3C(=O)c2ccc(C)nc2-n2ccnn2)n1 (racemic) [Example 140, (±)-(6-methyl-2-(1H-1,2,3-triazol-1-yl)pyridin-3-yl)(2-(((6-methylpyridin-2-yl)oxy)methyl)-7-azabicyclo[2.2.1]heptan-7-yl)methanone]	2300	3100		
Cc1cc(C)nc(NC2CC3CCC2N3C(=O)c2cc(F)ccc2-n2nccn2)n1 (racemic) [Example 197, (±)-(2-((4,6-dimethylpyrimidin-2-yl)amino)-7-azabicyclo[2.2.1]heptan-7-yl)(5-fluoro-2-(2H-1,2,3-triazol-2-yl)phenyl)methanone]			9000	862
O=C(c1cc(F)ccc1-c1ncccn1)N1C2CCC1C(COc1ccc(F)cn1)C2 (racemic) [Example 32, (±)-(5-fluoro-2-(pyrimidin-2-yl)phenyl)(2-(((5-fluoropyridin-2-yl)oxy)methyl)-7-azabicyclo[2.2.1]heptan-7-yl)methanone]	123		21	
Cc1noc(-c2ccccc2C(=O)N2C3CCC2C(COc2cccc(C(F)(F)F)n2)C3)n1 (racemic) [Example 145, (±)-(2-(3-methyl-1,2,4-oxadiazol-5-yl)phenyl)(2-(((6-(trifluoromethyl)pyridin-2-yl)oxy)methyl)-7-azabicyclo[2.2.1]heptan-7-yl)methanone]		340		330
O=C(c1cc(F)ccc1-n1nccn1)N1C2CCC1C(COc1cnc3ccccc3n1)C2 (racemic) [Example 37, (±)-(5-fluoro-2-(2H-1,2,3-triazol-2-yl)phenyl)(2-((quinoxalin-2-yloxy)methyl)-7-azabicyclo[2.2.1]heptan-7-yl)methanone]	487	300		
O=C(c1cccc(F)c1-n1nccn1)N1C2CCC1C(COc1cccc(C(F)(F)F)n1)C2 (racemic) [Example 146, (±)-(3-fluoro-2-(2H-1,2,3-triazol-2-yl)phenyl)(2-(((6-(trifluoromethyl)pyridin-2-yl)oxy)methyl)-7-azabicyclo[2.2.1]heptan-7-yl)methanone]	196	180		
CCOc1ccc2ccccc2c1C(=O)N1C2CCC1C(COc1ccc(F)cn1)C2 (racemic) [Example 28, (±)-(2-ethoxynaphthalen-1-yl)(2-(((5-fluoropyridin-2-yl)oxy)methyl)-7-azabicyclo[2.2.1]heptan-7-yl)methanone]	11	14		
Cc1ccc(OCC2CC3CCC2N3C(=O)c2ccccc2-c2nc(C)no2)nc1 (racemic) [Example 137, (±)-(2-(3-methyl-1,2,4-oxadiazol-5-yl)phenyl)(2-(((5-methylpyridin-2-yl)oxy)methyl)-7-azabicyclo[2.2.1]heptan-7-yl)methanone]	425	950		
Cc1cccc(OCC2CC3CCC2N3C(=O)c2ccccc2-c2nc(C)no2)n1 (racemic) [Example 141, (±)-(2-(3-methyl-1,2,4-oxadiazol-5-yl)phenyl)(2-(((6-methylpyridin-2-yl)oxy)methyl)-7-azabicyclo[2.2.1]heptan-7-yl)methanone]	300	280		
Cc1ccc(OCC2CC3CCC2N3C(=O)c2cc(C)ccc2-n2nccn2)nc1 (racemic) [Example 167, (±)-5-methyl-2-(2H-1,2,3-triazol-2-yl)phenyl)(2-(((5-methylpyridin-2-yl)oxy)methyl)-7-azabicyclo[2.2.1]heptan-7-yl)methanone]		9		14
Cc1cc(C)nc(OCC2CC3CCC2N3C(=O)c2cccc(F)c2-n2nccn2)n1 (racemic) [Example 154, (±)-(2-(((4,6-dimethylpyrimidin-2-yl)oxy)methyl)-7-azabicyclo[2.2.1]heptan-7-yl)(3-fluoro-2-(2H-1,2,3-triazol-2-yl)phenyl)methanone]		690		300
O=C(c1cccc2ccccc12)N1C2CCC1C(COc1ccc(F)cn1)C2 (racemic) [Example 24, (±)-2-(((5-fluoropyridin-2-yl)oxy)methyl)-7-azabicyclo[2.2.1]heptan-7-yl)(naphthalen-1-yl)methanone]	164	122		
O=C(c1cccc(F)c1-n1nccn1)N1C2CCC1C(COc1ccccn1)C2 (racemic) [Example 129, (±)-(3-fluoro-2-(2H-1,2,3-triazol-2-yl)phenyl)(2-((pyridin-2-yloxy)methyl)-7-azabicyclo[2.2.1]heptan-7-yl)methanone]	1000	190		
Cc1cc(C)nc(OCC2CC3CCC2N3C(=O)c2c(F)cccc2-c2ncccn2)n1 (racemic) [Example 43, (±)-(2-(((4,6-dimethylpyrimidin-2-yl)oxy)methyl)-7-azabicyclo[2.2.1]heptan-7-yl)(2-fluoro-6-(pyrimidin-2-yl)phenyl)methanone]	92	222		
O=C(c1ccccc1-c1cccs1)N1[C@@H]2CC[C@H]1[C@H](COc1ccc(F)cn1)C2 (single isomer, unassigned) [Example 12A, ((1S*,2R*,4R*)-2-(((5-fluoropyridin-2-yl)oxy)methyl)-7-azabicyclo[2.2.1]heptan-7-yl)(2-(thiophen-2-yl)phenyl)methanone]			177	339
Cc1nc(C(=O)N2C3CCC2C(COc2ccc(F)cn2)C3)c(-c2ccccc2F)s1 (racemic) [Example 29, (±)-(5-(2-fluorophenyl)-2-methylthiazol-4-yl)(2-(((5-fluoropyridin-2-yl)oxy)methyl)-7-azabicyclo[2.2.1]heptan-7-yl)methanone]	60	11		
Cc1noc(-c2ccccc2C(=O)N2C3CCC2C(COc2cnc4ccccc4n2)C3)n1 (racemic) [Example 149, (±)-(2-(3-methyl-1,2,4-oxadiazol-5-yl)phenyl)(2-((quinoxalin-2-yloxy)methyl)-7-azabicyclo[2.2.1]heptan-7-yl)methanone]	2000	220		
Cc1ccnc(OCC2CC3CCC2N3C(=O)c2cc(C)ccc2-n2nccn2)c1 (racemic) [Example 17, (±)-(5-methyl-2-(2H-1,2,3-triazol-2-yl)phenyl)(2-(((4-methylpyridin-2-yl)oxy)methyl)-7-azabicyclo[2.2.1]heptan-7-yl)methanone]	69	41		
O=C(c1ccccc1-n1nccn1)N1C2CCC1C(Nc1cnc(C(F)(F)F)cn1)C2 (single isomer, unassigned) [Example 183b]			28	700
Cc1ccc(-n2nccn2)c(C(=O)N2C3CCC2C(COc2cnc4ccccc4n2)C3)c1 (racemic) [Example 36, (±)-(5-methyl-2-(2H-1,2,3-triazol-2-yl)phenyl)(2-((quinoxalin-2-yloxy)methyl)-7-azabicyclo[2.2.1]heptan-7-yl)methanone]	107	70		
Cc1ccc(OCC2CC3CCC2N3C(=O)c2cc(C)ccc2-n2nccn2)nc1 (racemic) [Example 19, (±)-(5-methyl-2-(2H-1,2,3-triazol-2-yl)phenyl)(2-(((5-methylpyridin-2-yl)oxy)methyl)-7-azabicyclo[2.2.1]heptan-7-yl)methanone]	44	12		
O=C(c1c(F)cccc1-c1ncccn1)N1C2CCC1C(COc1ccc(F)cn1)C2 (racemic) [Example 31, (±)-(2-fluoro-6-(pyrimidin-2-yl)phenyl)(2-(((5-fluoropyridin-2-yl)oxy)methyl)-7-azabicyclo[2.2.1]heptan-7-yl)methanone]	122	33		
O=C(c1ccc(F)cc1-n1nccn1)N1[C@@H]2CC[C@H]1[C@H](Nc1cnc(C(F)(F)F)cn1)C2 [Example 257, (4-fluoro-2-(2H-1,2,3-triazol-2-yl)phenyl)((1S,2R,4R)-2-((5-(trifluoromethyl)pyrazin-2-yl)amino)-7-azabicyclo[2.2.1]heptan-7-yl)methanone]	3200	102		
